Columns and labels:
Acetylcholinesterase [1] = target: T1, Acetylcholinesterase (Rattus norvegicus, UniProt P37136)
T1 sequence (P37136 whole entry): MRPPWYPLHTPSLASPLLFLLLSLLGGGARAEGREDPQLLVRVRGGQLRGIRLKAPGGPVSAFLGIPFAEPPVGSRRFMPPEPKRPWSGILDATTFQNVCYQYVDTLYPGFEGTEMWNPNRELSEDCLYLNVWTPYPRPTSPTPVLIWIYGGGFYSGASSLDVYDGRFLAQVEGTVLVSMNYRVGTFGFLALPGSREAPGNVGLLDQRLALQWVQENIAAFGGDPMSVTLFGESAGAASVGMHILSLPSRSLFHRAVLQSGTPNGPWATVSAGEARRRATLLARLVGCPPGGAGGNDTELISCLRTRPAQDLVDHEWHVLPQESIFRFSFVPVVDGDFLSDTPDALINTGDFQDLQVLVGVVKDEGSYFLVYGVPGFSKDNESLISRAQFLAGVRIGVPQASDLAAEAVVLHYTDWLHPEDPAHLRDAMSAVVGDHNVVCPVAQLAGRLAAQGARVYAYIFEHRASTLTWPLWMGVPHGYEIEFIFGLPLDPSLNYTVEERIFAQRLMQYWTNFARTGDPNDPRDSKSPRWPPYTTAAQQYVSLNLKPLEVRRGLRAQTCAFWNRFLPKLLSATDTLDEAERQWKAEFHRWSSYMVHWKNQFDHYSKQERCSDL
Description: Inhibition of AChE in rat cortex using acetylthiocholine iodide as substrate preincubated with enzyme for 10 mins prior to substrate addition by Ellman's colorimetric method

Acetylcholinesterase [2] = target: T1, Acetylcholinesterase; experiment: Inhibition of AChE in rat cortex using acetylthiocholine iodide as substrate by double Lineweaver-Burk plot analysis

Row | Compound | IC50 (Acetylcholinesterase [1]) [nM] | Ki (Acetylcholinesterase [2]) [nM]
1 | C[N+](C)(C)Cc1cc(O)c2c(c1)C(=O)c1cccc(O)c1C2=O | 3760 | –
2 | C[N+](C)(Cc1cc(O)c2c(c1)C(=O)c1cccc(O)c1C2=O)c1ccccc1 | 25400 | –
3 | O=C1c2cccc(O)c2C(=O)c2c(O)cc(C[n+]3ccccc3)cc21 | 90 | 279
4 | COc1cccc2c1C(=O)c1c(OC)cc(C[N+](C)(C)c3ccccc3)cc1C2=O | 13600 | –
5 | COc1cccc2c1C(=O)c1c(OC)cc(C[N+](C)(C)C)cc1C2=O | 540 | –

— ChEMBL document CHEMBL2331449, “Synthesis, biological evaluation and molecular modeling of aloe-emodin derivatives as new acetylcholinesterase inhibitors” (Bioorg Med Chem, 2013)
